Among the data in BindingDB's records for doi:10.1016/j.bmcl.2011.10.055 (Cephalon, 2011) are IC50 values, retold here.

A word on the IC50: it is the concentration that inhibits the measured activity by half.

Structures are written as SMILES.

In the test the target is Insulin receptor (Homo sapiens, UniProt P06213). Kind of test: Inhibition of GST-tagged intracellular domain of IR by homogeneous time-resolved fluorescence assay.

As to `C=c1nns/c1=c1\[nH][nH]c(=O)c1=Cc1cn(C)c2cccc(OCc3cccc(F)c3)c12`, the IC50 was > 10 µM. With `C=c1nns/c1=c1\[nH][nH]c(=O)c1=Cc1cn(C)c2cccc(OCc3ccccc3)c12`, the IC50 was > 10 µM.

Take `C=c1nns/c1=c1\[nH][nH]c(=O)c1=Cc1cn(C)c2cccc(OCc3ccccc3F)c12`: the IC50 was > 10 µM. As for `C=c1nns/c1=c1\[nH][nH]c(=O)c1=Cc1cn(C)c2cccc(OCc3ccc(F)cc3F)c12`, the IC50 was > 10 µM.

On to `C=c1nns/c1=c1\[nH][nH]c(=O)c1=Cc1cn(C)c2cccc(OCc3ccc(F)cc3)c12`, for which the IC50 is > 10 µM.
